From ChEMBL document CHEMBL3792286, “A convenient and efficient approach to polyfluorosalicylic acids and their tuberculostatic activity” (Bioorg Med Chem Lett, 2016)
≈ marks a conversion by molar mass, not a printed value. Calls of active or inactive are those of the source. The rule behind the calls is not given here.

Legend:
[1] = tested on: Mycobacterium tuberculosis; experiment: microbe, parasite or virus in culture; conditions: 240 h
[2] = tested on: Mycobacterium tuberculosis

Row | Compound | MIC [1] [µg/mL] | MIC [2]
1 | O=C(O)c1c(O)c(F)c(F)c(F)c1F | 0.7 (≈ 3.33 µM) | –
2 | O=C(O)c1ccc(F)c(F)c1O | 1.5 (≈ 8.62 µM) | –
3 | O=C(O)c1cc(F)c(F)cc1O | 0.7 (≈ 4.02 µM) | –
4 | CC1COc2c(N3CCN(C)CC3)c(F)cc3c(=O)c(C(=O)O)cn1c23 (stereo not given) [OFLOXACIN] | 0.1 (≈ 0.277 µM) | –
5 | NNC(=O)c1ccncc1 [ISONIAZID] | – | inactive
